From patent US6372297B1, “Wood preservative oxathiazines” (Uniroyal Chemical Company, Inc., priority 1993, dated 2002)
Where two headings read alike, the source gives them in different places.

Tests used:
Assay type in all cases: cell-based
[1] = test system: Aspergillus niger; assay: Wood preservative efficacy against fungi, agar plate colony diameter
Description: (§1) Each plate was inoculated with a spore suspension or with a small piece of agar (1 mm) from the margin of an actively growing colony of the test fungus. The fungi employed are listed below. After incubation at 22° C. and 70% relative humidity during a period long enough to allow significant growth of untreated controls, the diameters of the fungus colonies were measured and scored using the following rating system: 0=free of fungal growth 1=25% of fungal growth compared to untreated 2=50% of fungal growth compared to untreated 3=75% of fungal growth compared to untreated 4=Growth equal to that of untreated The scores measured for wood preservation efficacy of the compounds of this invention are listed in Tables 6a and 6b. In these Tables, the lower numbers are the most preferred species. Aspergillus niger

[2] = test system: Pseudomonas aeruginosa; assay: Wood preservative efficacy against bacteria and yeasts, tryptose agar plates; design: key: 0 = growth equal to control, 1 = growth inhibited, 2 = no growth; conditions: 100 ppm in tryptose agar
Description: (§2) Compositions were prepared by dissolving the compounds shown in Table 1 in 50% ethanol and further diluting with sterile distilled water. […] After cooling, the medium was inoculated with the bacteria listed below. After sufficient growth of the untreated cultures, the compounds were evaluated using the following rating system: 0=growth equal to control 1=inhibition of growth by the compound 2=no growth under the influence of the compound. In this Table, the higher numbers are the most preferred species. Pseudomonas aeruginosa (gram neg)

[3] = test system: Escherichia coli; assay: as above; design: key: 0 = growth equal to control, 1 = growth inhibited, 2 = no growth
Description: as §2, with “Escherichia coli” for “Pseudomonas aeruginosa”, “[…])” for “neg)”

[4] = test system: Bacillus cereus mycoides; design: scale not given here
[5] = test system: Aspergillus flavus; assay: Wood preservative efficacy against fungi, agar plate colony diameter
Description: as §1, with “flavus” for “niger”

[6] = test system: Aureobasidium pullulans; assay: as above; design: key: 1=25%, 2=50%, 3=75%, 4=100% of untreated growth; lower better
Description: The compounds shown in Table 1 were dissolved in 50% ethanol and then diluted with sterile water to give the required concentrations of 1 and 10 ppm in the test agar plates. Malt extract sugar (3%) was added aseptically and uniform distribution was obtained by shaking. Each plate was inoculated with a spore suspension or with a small piece of agar (1 mm) from the margin of an actively growing colony of the test fungus. The fungi employed are listed below. After incubation at 22° C. and 70% relative humidity during a period long enough to allow significant growth of untreated controls, the diameters of the fungus colonies were measured and scored using the following rating system:
1=25% of fungal growth compared to untreated
2=50% of fungal growth compared to untreated
3=75% of fungal growth compared to untreated
4=Growth equal to that of untreated
In these Tables, the lower numbers are the most preferred species.

[7] = test system: Trichoderma viride; assay: as above
Description: as §1, with “Trichoderma viride” for “Aspergillus niger”

[8] = test system: Coniophora puteana; assay: as above; design: key: 0 = no fungal growth, 1-3 = 25/50/75% of untreated, 4 = equal
Description: as §1, with “Coniophora puteana (syn. C. cerebella)” for “Aspergillus niger”

[9] = test system: Streptomyces albus; assay: Wood preservative efficacy against bacteria and yeasts, tryptose agar plates; design: key: 0 = growth equal to control, 1 = inhibition, 2 = no growth
Description: as §2, with “Streptomyces albus” for “Pseudomonas aeruginosa”, “pos)” for “neg)”

[10] = test system: Coriolus versicolor; assay: Wood preservative efficacy against fungi, agar plate colony diameter; conditions: for Score of fungicidal activity, C. VERSICLOR: Test dosage 10 ppm, Table 6A; for Score of fungicidal activity, G. VERSICLOR: Table 6B
Description: as §1, with “Coriolus versicolor” for “Aspergillus niger”

SMILES | Score of fungicidal activity, A. NIGER ([1]; Test dosage 10 ppm, Table 6A) | Score of bactericidal activity, P. aeruginosa [2] | Score of bactericidal activity, E. Coli ([3]; 100 ppm in tryptose agar) | Score of bactericidal activity, B. cereus mycoides ([4]; 10 ppm in tryptose agar) | Score of bactericidal activity, B. cereus mycoides ([4]; 100 ppm in tryptose agar) | Score of fungicidal activity, A. FLAVUS ([5]; Test dosage 10 ppm, Table 6A) | Score of fungicidal activity, A. PULLULANS ([6]; Test dosage 10 ppm, Table 6A) | Score of fungicidal activity, T. VIRIDE ([7]; Test dosage 10 ppm, Table 6A) | Score of fungicidal activity, C. PUTEANA ([8]; Test dosage 10 ppm, Table 6A) | Score of bactericidal activity, S. albus ([9]; 100 ppm in tryptose agar) | Score of fungicidal activity, C. VERSICLOR [10] | Score of fungicidal activity, A. NIGER ([1]; 10 ppm, Table 6B) | Score of bactericidal activity, E. Coli ([3]; 10 ppm in tryptose agar) | Score of fungicidal activity, A. FLAVUS ([5]; 10 ppm, Table 6B) | Score of fungicidal activity, A. PULLULANS ([6]; 10 ppm, Table 6B) | Score of fungicidal activity, T. VIRIDE ([7]; 10 ppm, Table 6B) | Score of fungicidal activity, C. PUTEANA ([8]; 10 ppm, Table 6B) | Score of bactericidal activity, S. albus ([9]; 10 ppm in tryptose agar) | Score of fungicidal activity, G. VERSICLOR ([10]; 10 ppm) | further results
C[S+]1CCON=C1c1ccc(Cl)cc1 (stereo not shown) [Compound 1] | 0 | 0 | 2 | 2 | 2 | 0 | 3 (75% of growth compared to untreated control) | 2 (50% of growth compared to untreated control) | 2 (50% of growth compared to untreated control) | 2 | 0 | – | – | – | – | – | – | – | – | –
[O-][S+]1CCON=C1c1ccc(Cl)c(Cl)c1 (stereo not shown) [Compound 4] | 0 | 0 | 2 | 2 | 2 | 0 | 2 (50% of growth compared to untreated control) | 1 (25% of growth compared to untreated control) | 0 | 2 | 0 | – | – | – | – | – | – | – | – | –
[O-][S+]1CCON=C1c1cccs1 (stereo not shown) [Compound 8] | 1 (25% of growth compared to untreated control) | 1 | 2 | 0 | 2 | 1 (25% of growth compared to untreated control) | 2 (50% of growth compared to untreated control) | 2 (50% of growth compared to untreated control) | 2 (50% of growth compared to untreated control) | 2 | 0 | – | – | – | – | – | – | – | – | –
CC(=O)c1ccc(C2=NOCC[S+]2[O-])cc1 (stereo not shown) [Compound 14] | 3 (75% of growth compared to untreated control) | 1 | 2 | 2 | 2 | 2 (50% of growth compared to untreated control) | 4 | 3 (75% of growth compared to untreated control) | 3 (75% of growth compared to untreated control) | 2 | 2 (50% of growth compared to untreated control) | – | – | – | – | – | – | – | – | –
C[S+]1CCON=C1c1cc(Cl)cc(Cl)c1 (stereo not shown) [Compound 19] | – | 0 | 0 | 0 | 2 | – | – | – | – | 2 | – | 0 | 0 | 0 | 3 (75% of growth compared to untreated control) | 2 (50% of growth compared to untreated control) | 3 (75% of growth compared to untreated control) | 0 | 0 | Score of fungicidal activity, G. VERSICLOR ([10]; 1 ppm): 2 (50% of growth compared to untreated control)
CCOC(=O)c1ccc(C2=NOCC[S+]2[O-])cc1 (stereo not shown) [Compound 22] | – | 0 | 0 | 2 | 2 | – | – | – | – | 2 | – | 3 (75% of growth compared to untreated control) | 0 | 2 (50% of growth compared to untreated control) | 4 | 3 (75% of growth compared to untreated control) | 0 | 1 | 2 (50% of growth compared to untreated control) | Score of fungicidal activity, C. PUTEANA ([8]; 1 ppm, Table 6B): 3 (75% of growth compared to untreated control)
C[S+]1CCON=C1c1ccc(C(F)(F)F)cc1 (stereo not shown) [Compound 25] | – | 0 | 0 | 2 | 2 | – | – | – | – | 2 | – | 0 | 0 | 0 | 3 (75% of growth compared to untreated control) | 2 (50% of growth compared to untreated control) | 0 | 2 | 0 | Score of fungicidal activity, C. PUTEANA ([8]; 1 ppm, Table 6B): 2 (50% of growth compared to untreated control); Score of fungicidal activity, G. VERSICLOR ([10]; 1 ppm): 3 (75% of growth compared to untreated control)
COC(=O)c1cccc(C2=NOCC[S+]2[O-])c1 (stereo not shown) [Compound 26] | – | 0 | 0 | 2 | 2 | – | – | – | – | 2 | – | 4 | 0 | 4 | 4 | 3 (75% of growth compared to untreated control) | 4 | 0 | 4 | –
